Measurements: article PMC4753678 (Journal of medicinal chemistry, 2016)
One block for each molecule: values may come before it.

Tests used:
[1] = biological target: T1, full-length human dCTPase protein (Homo sapiens, UniProt Q9H773); test: HTS-adapted Malachite Green assay of dCTPase inhibition; assay type: biochemical; conditions: for decrease in potency: compared with compound 6
T1 sequence (Q9H773 1-170): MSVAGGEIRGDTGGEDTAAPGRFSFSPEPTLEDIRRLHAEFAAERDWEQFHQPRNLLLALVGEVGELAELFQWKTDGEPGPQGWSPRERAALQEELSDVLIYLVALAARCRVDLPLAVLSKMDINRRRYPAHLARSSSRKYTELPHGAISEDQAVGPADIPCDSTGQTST

[2] = biological target: T2, purified dCTPase enzyme (Homo sapiens, UniProt Q9H773); test: differential scanning fluorimetry assay; assay type: binding
T2 sequence (Q9H773 1-170): T1 sequence (Q9H773 1-170)

[3] = biological target: T3, intracellular dCTPase (Homo sapiens, UniProt Q9H773); test: cellular thermal shift assay in HL60 cells; assay type: cell-based; conditions: 2 h incubation, heated at 67 °C
T3 sequence (Q9H773 1-170): T1 sequence (Q9H773 1-170)

[4] = test system: NTPases/NUDIX hydrolases; test: selectivity panel of related NTPases/NUDIX hydrolases; assay type: biochemical
[5] = test system: base excision repair enzymes; test: selectivity against base excision repair enzymes; assay type: biochemical
[6] = test system: kinases; test: selectivity against kinases; assay type: biochemical
[7] = test system: DNA; test: DNA intercalation
[8] = mouse liver microsome stability; conditions: mouse liver microsomes
[9] = human liver microsome stability; conditions: human liver microsomes
[10] = stability of a solution at room temperature under normal light; assay type: physicochemical; conditions: normal light conditions, five months
[11] = glutathione conjugation with metabolic activation in HLM; assay type: in vitro ADME, human; conditions: in the presence of metabolic activation system (in HLM)
[12] = test system: p-Chk1, γ-H2AX, 53BP1, cleaved caspase 3; test: DNA replication stress and apoptosis markers; assay type: cell-based; conditions: at the concentrations and time points tested
[13] = biological target: T4, dCTPase (Homo sapiens, UniProt Q9H773); test: jump dilution assay; assay type: biochemical; conditions: 10% of the IC50 concentration
T4 sequence (Q9H773 1-170): T1 sequence (Q9H773 1-170)

[14] = test system: HL60 cells; test: combination with cytidine analogues, cell death by flow cytometry; assay type: cell-based; conditions: 72 h, compound 18 2.5 μM, increasing concentrations of cytidine analogues
[15] = plasma protein binding; assay type: in vitro ADME

inhibition of dCTPase (in words) [1]: no inhibiton of dCTPase
SMILES: COc1ccc(Cn2cnc3ccccc32)cc1 [Compound 7, 1-(4-Methoxybenzyl)-1H-benzo[d]imidazole]

inhibition of dCTPase (in words) [1]: no inhibition of dCTPase
SMILES: COc1ccc(Cn2c(C)nc3ccccc32)cc1 [Compound 9, 1-(4-Methoxybenzyl)-2-methyl-1H-benzo[d]imidazole]

decrease in potency [1]: 400 fold
SMILES: COc1ccc(Cn2c(C)nc3cc(C)c(C)cc32)cc1 [Compound 10, 1-(4-Methoxybenzyl)-2,5,6-trimethyl-1H-benzo[d]imidazole]

decrease in potency [1]: approximately 25 fold
SMILES: COc1ccc(Cn2c(C)nc3c([N+](=O)[O-])cccc32)cc1 [Compound 12, 1-(4-Methoxybenzyl)-2-methyl-4-nitro-1H-benzo[d]imidazole]

stabilization of the purified dCTPase enzyme [2]: concentration-dependent stabilization
intracellular dCTPase stabilization / target engagement [3]: did not stabilize dCTPase
selectivity over base excision repair enzymes [5]: excellent selectivity
DNA intercalation [7]: did not intercalate DNA
E MLM (extraction ratio) [8]: 0.88
E HLM (extraction ratio) [9]: 0.59
SMILES: COc1ccc(Cn2c(C)nc3c([N+](=O)[O-])c(Cl)c(Cl)cc32)cc1 [Compound 14, 5,6-Dichloro-1-(4-methoxybenzyl)-2-methyl-4-nitro-1H-benzo-[d]imidazole]
selectivity across related NTPases/NUDIX hydrolases [4]: excellent selectivity
selectivity over kinases [6]: excellent selectivity

E MLM (extraction ratio) [8]: 0.89
E HLM (extraction ratio) [9]: 0.83
SMILES: Cc1n[nH]c(C)c1CCn1c(C)nc2c([N+](=O)[O-])c(Cl)c(Cl)cc21 [Compound 25, 5,6-Dichloro-1-(2-(3,5-dimethyl-1H-pyrazol-4-yl)ethyl)-2-methyl-4-nitro-1H-benzo[d]imidazole]

E MLM (extraction ratio) [8]: 0.73
E HLM (extraction ratio) [9]: 0.61
SMILES: Cc1nc2c([N+](=O)[O-])c(Cl)c(Cl)cc2n1Cc1ccc(-n2cccn2)cc1 [Compound 27, 1-(4-(1H-Pyrazol-1-yl)benzyl)-5,6-dichloro-2-methyl-4-nitro-1H-benzo[d]imidazole]

More lines, now with the values behind:

SMILES: COc1ccc(Cn2cnc3cc(C)c(C)cc32)cc1 [Compound 8, 1-(4-Methoxybenzyl)-5,6-dimethyl-1H-benzo[d]imidazole]
inhibition of dCTPase (in words) [1]: no inhibiton of dCTPase

SMILES: Cc1nc2c([N+](=O)[O-])c(Cl)c(Cl)cc2n1Cc1ccc(B(O)O)cc1 [Compound 18, (4-((5,6-Dichloro-2-methyl-4-nitro-1H-benzo[d]imidazol-1-yl)-methyl)phenyl)boronic Acid]
stabilization of the purified dCTPase enzyme [2]: concentration-dependent stabilization
intracellular dCTPase stabilization / target engagement [3]: strong intracellular target engagement
degradation of a solution [10]: no signs of degradation
conjugation with glutathione (GSH) [11]: did not conjugate
DNA replication stress (p-Chk1, γ-H2AX, 53BP1) and cleaved caspase 3 [12]: did not increase DNA replication stress
reversibility of dCTPase inhibition [13]: reversible off-rate
cell death in combination with cytidine analogues [14]: concentration-dependent increase in cell death
selectivity across related NTPases/NUDIX hydrolases [4]: excellent selectivity
selectivity over base excision repair enzymes [5]: excellent selectivity
selectivity over kinases [6]: excellent selectivity
DNA intercalation [7]: did not intercalate DNA
E MLM (extraction ratio) [8]: 0.24
E HLM (extraction ratio) [9]: 0.38

SMILES: Cc1nc2c([N+](=O)[O-])c(Cl)c(Cl)cc2n1Cc1ccc(B2OC(=O)CN(C)CC(=O)O2)cc1 [Compound 30, 2-(4-((5,6-Dichloro-2-methyl-4-nitro-1H-benzo[d]-imidazol-1-yl)methyl)phenyl)-6-methyl-1,3,6,2-dioxazaborocane-4,8-dione]
fraction unbound [15]: 0.008
conjugation with glutathione (GSH) [11]: did not conjugate
E MLM (extraction ratio) [8]: 0.36

SMILES: O=[N+]([O-])c1c(Cl)c(Cl)cc2c1nc(C1CC1)n2Cc1ccc(B(O)O)cc1 [Compound 36, (4-((5,6-Dichloro-2-cyclopropyl-4-nitro-1H-benzo[d]imidazol-1-yl)methyl)phenyl)boronic Acid]
reversibility of dCTPase inhibition [13]: reversible off-rate
E MLM (extraction ratio) [8]: 0.83
E HLM (extraction ratio) [9]: 0.14

SMILES: Cc1nc2cc(Cl)c(Cl)cc2n1Cc1ccc(B(O)O)cc1 [Compound 38, (4-((5,6-Dichloro-2-methyl-1H-benzo[d]imidazol-1-yl)methyl)-phenyl)boronic Acid]
inhibition of dCTPase (in words) [1]: submicromolar activity

SMILES: Cc1nc2c([N+](=O)[O-])c(F)c(F)cc2n1Cc1ccc(B(O)O)cc1 [Compound 39, (4-((5,6-Difluoro-2-methyl-4-nitro-1H-benzo[d]imidazol-1-yl)-methyl)phenyl)boronic Acid]
inhibition of dCTPase (in words) [1]: submicromolar activity
